Columns and labels:
Format in all cases: cell-based
[1] = target: T1, rat GLP-1r (Rattus norvegicus, UniProt P32301); assay: cAMP accumulation in Chinese hamster lung cells overexpressing the rat GLP-1r; details: Chinese hamster lung cells overexpressing rGLP-1r; 30 min incubation, room temperature, 1 mM IBMX; cAMP ELISA; mean, n = 3
T1 construct: expressed in transfected cells; host or cells: Chinese hamster lung cells
T1 sequence (P32301 22-463): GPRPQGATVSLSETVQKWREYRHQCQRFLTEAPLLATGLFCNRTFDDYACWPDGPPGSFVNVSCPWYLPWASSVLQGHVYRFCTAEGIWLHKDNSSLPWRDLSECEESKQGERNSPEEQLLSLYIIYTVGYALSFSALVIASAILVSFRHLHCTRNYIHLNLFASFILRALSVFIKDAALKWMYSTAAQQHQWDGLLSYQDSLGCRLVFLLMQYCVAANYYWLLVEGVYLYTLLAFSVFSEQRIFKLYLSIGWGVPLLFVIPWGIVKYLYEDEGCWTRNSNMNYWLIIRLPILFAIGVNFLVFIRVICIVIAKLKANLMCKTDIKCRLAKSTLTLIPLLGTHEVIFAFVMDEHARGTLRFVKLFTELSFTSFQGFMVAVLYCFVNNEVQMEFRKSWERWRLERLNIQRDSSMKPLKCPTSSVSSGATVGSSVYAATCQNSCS
Protocol: (§1) All cell culture reagents were obtained from Invitrogen (Life Technologies Ltd, Paisley, United Kingdom) unless otherwise stated. Chinese hamster ovary-K1 cells overexpressing the rat GCGr were routinely maintained in Dulbecco’s modified eagle medium (DMEM) with 25 mM glucose and 1 mM sodium pyruvate supplemented with 10% fetal bovine serum, 25 mM hydroxyethyl piperazineethanesulfonic acid, 1% antibiotic (100 U/mL penicillin and 100 µg/mL streptomycin), and 1 × nonessential amino acids. Chinese hamster lung cells overexpressing the rat GLP-1r were maintained in the same DMEM but without additional hydroxyethyl piperazineethanesulfonic acid or nonessential amino acids.
(§2) Levels of cAMP accumulation was measured in Chinese hamster ovary-K1 cells overexpressing the rat GCGr (cDNA from Origene, Cambridge Bioscience, Cambridge, United Kingdom) or Chinese hamster lung cells overexpressing the rat GLP-1r (a gift from Bernard Thorens, University of Lausanne, Switzerland). […]
(§3) Data were plotted and in vivo efficacy values calculated.
(§4) cAMP in vitro efficacy and binding in vitro affinity were calculated using nonlinear regression with Prism version 5 software (GraphPad Software Inc, San Diego, California). Differences in cumulative food intake and body weight were analyzed using 1-way ANOVA and post hoc tests with Dunnett or Bonferroni correction (Prism version 5 software). […]

[2] = target: T2, rat GCGr (Rattus norvegicus, UniProt P30082); assay: cAMP accumulation in CHO-K1 cells overexpressing the rat GCGr; details: CHO cells overexpressing rGCGr; 30 min incubation, room temperature, 1 mM IBMX; cAMP ELISA; mean, n = 3
T2 construct: host or cells: Chinese hamster ovary-K1 cells
Protocol: as §1, §2, §3, §4

[3] = target: T2, rat GCGr; assay: Rat GCGr antagonism study: cAMP in the presence of 0.1 nM glucagon; details: n = 3
Protocol: Postincubation, medium was removed and cells lysed with 120 µL/well of 0.1 M hydrochloride + 0.5% nonionic, octylphenol ethoxylate surfactant. cAMP levels were measured using an indirect ELISA according to the manufacturer’s instructions (ADI-900-066, Enzo Life Sciences, United Kingdom), optical density was read at 405 nm on a Biotek ELx808 (Wolf Laboratories, York, United Kingdom). Data were plotted and […] efficacy values calculated.

T2 sequence (P30082 27-485): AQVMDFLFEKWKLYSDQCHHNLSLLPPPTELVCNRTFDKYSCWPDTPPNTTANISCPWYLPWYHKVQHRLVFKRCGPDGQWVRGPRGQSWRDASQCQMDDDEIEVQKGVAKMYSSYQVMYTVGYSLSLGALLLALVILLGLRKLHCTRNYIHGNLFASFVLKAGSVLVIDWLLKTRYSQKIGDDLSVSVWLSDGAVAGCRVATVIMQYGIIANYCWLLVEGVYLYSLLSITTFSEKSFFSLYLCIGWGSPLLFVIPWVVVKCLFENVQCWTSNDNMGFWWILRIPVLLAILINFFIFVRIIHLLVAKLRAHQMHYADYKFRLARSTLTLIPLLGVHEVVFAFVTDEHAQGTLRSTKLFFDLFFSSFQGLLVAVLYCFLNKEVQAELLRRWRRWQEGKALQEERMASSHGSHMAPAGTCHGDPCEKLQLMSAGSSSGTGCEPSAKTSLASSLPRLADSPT

**Q.** How did the EC50 [1] turn out when `CC[C@H](C)[C@H](NC(=O)[C@H](CC(N)=O)NC(=O)[C@H](CC(N)=O)NC(=O)[C@H](CCCNC(=N)N)NC(=O)[C@H](CC(N)=O)NC(=O)[C@H](CCCNC(=N)N)NC(=O)[C@H](CCCCN)NC(=O)[C@@H](NC(=O)[C@H](CC(N)=O)NC(=O)[C@H](CCSC)NC(=O)[C@H](CC(C)C)NC(=O)[C@H](Cc1c[nH]c2ccccc12)NC(=O)[C@H](CCC(N)=O)NC(=O)[C@@H](NC(=O)[C@H](Cc1ccccc1)NC(=O)[C@H](CC(=O)O)NC(=O)[C@H](CCC(N)=O)NC(=O)[C@H](C)NC(=O)[C@H](CCCNC(=N)N)NC(=O)[C@H](CCCNC(=N)N)NC(=O)[C@H](CO)NC(=O)[C@H](CC(=O)O)NC(=O)[C@H](CC(C)C)NC(=O)[C@H](Cc1ccc(O)cc1)NC(=O)[C@H](CCCCN)NC(=O)[C@H](CO)NC(=O)[C@H](Cc1ccc(O)cc1)NC(=O)[C@H](CC(=O)O)NC(=O)[C@H](CO)NC(=O)[C@@H](NC(=O)[C@H](Cc1ccccc1)NC(=O)[C@@H](NC(=O)CNC(=O)[C@H](CCC(=O)O)NC(=O)[C@H](CO)NC(=O)[C@@H](N)Cc1c[nH]cn1)[C@@H](C)O)[C@@H](C)O)C(C)C)[C@@H](C)O)C(=O)N[C@@H](C)C(=O)O` [OXME3] was run?
**A.** 8.1 nM

**Q.** And the EC50 [2]?
**A.** 160 nM

**Q.** And the “increase of cAMP levels compared with glucagon stimulation alone” value ([3]; 30 nM peptide with 0.1 nM glucagon)?
**A.** 9%

**Q.** What about the “decrease of glucagon-mediated cAMP accumulation, mean” value ([3]; all concentrations tested except 30 nM, with 0.1 nM glucagon, relative to glucagon alone) of the same compound?
**A.** 40.3%

Reference: article PMC4701715 (Current Therapeutic Research, Clinical and Experimental, 2015)
